Legend:
[1] = system: HIV-IIIb; assay: Test A: Antiviral Assay in MT4 Cells; format: cell-based, HIV-1; settings: Human immunodeficiency virus 1, MT4, 120 h, inhibition of virus-induced cell killing, MT-4 cells, HIV-IIIb, 5 days, values normalized to 100%; for inhibition at 0.01 µM: from dose response curve at 0.01 μM (10 nM), read-out: % inhibition at 0.01 μM; for inhibition at 0.2 µM: from dose response curve at 0.20 μM (200 nM), read-out: % inhibition at 0.20 μM
Protocol: (§1) MT-4 cells were next mixed with HIV-IIIb at a multiplicity of infection (m.o.i.) of 0.003 for 1 hour, after which time 35 μL of virus/cell mixture (2000 cells) was immediately added to each well containing 40 μL of diluted compound. The plates were then incubated at 37° C. for 5 days. After 5 days of incubation, 25 μl of 2× concentrated CellTiter-Glo Reagent (catalog #G7571, Promega Biosciences, Inc., Madison, Wis.) was added to each well containing MT-4 cells. Cell lysis was carried out by incubating at room temperature for 10 min and then chemiluminescence was read.

[2] = Test B: Cytotoxicity Assay (same protocol as Test A, uninfected cells); format: cell-based; settings: human, uninfected MT-4 cells, CellTiter-Glo
Protocol: as §1, with “read. […] Compound cytotoxicity and the corresponding CC50 values was determined using the same protocol as described in the antiviral assay (Test A) except that uninfected cells were used.” for “read.”

| SMILES | inhibition at 0.01 µM [1] | inhibition at 0.2 µM [1] | CC50 at 5 days [2] |
| --- | --- | --- | --- |
| Cn1nc(NS(C)(=O)=O)c2c(Cl)ccc(-c3ccc(C#CC(C)(C)S(=O)(=O)C4CC4)nc3[C@H](Cc3cc(F)cc(F)c3)NC(=O)Cc3ncc[nH]3)c21 [Example 66] | 61% | 97% | 11.7 µM |
| CC(C)(C#Cc1ccc(-c2ccc(Cl)c3c(NS(=O)(=O)C4CC4)nn(C4COC4)c23)c([C@H](Cc2cc(F)cc(F)c2)NC(=O)Cn2nc(C(F)(F)F)c3c2C(F)(F)[C@@H]2C[C@H]32)n1)S(=O)(=O)C1CC1 [Example 69] | 92% | 92% | > 50 µM |
| Cn1nc(NS(C)(=O)=O)c2c(Cl)ccc(-c3ccc(C#CC(C)(C)S(=O)(=O)C4CC4)nc3[C@H](Cc3cc(F)cc(F)c3)NC(=O)Cn3nc(C(F)F)c(Cl)c3C(F)F)c21 [Example 56] | 0% | 91% | 23.5 µM |
| CC(C)(C#Cc1ccc(-c2ccc(Cl)c3c(NS(=O)(=O)C4CC4)nn(CC(F)F)c23)c([C@H](Cc2cc(F)cc(F)c2)NC(=O)Cn2nc(C(F)F)c3c2C(F)(F)CCC3(F)F)n1)S(=O)(=O)C1CC1 [Example 33] | 97% | 97% | > 57.1 µM |
| Cn1nc(NS(=O)(=O)C2(C)CC2)c2c(Cl)ccc(-c3ccc(C#CC(C)(C)S(=O)(=O)C4CC4)nc3[C@H](Cc3cc(F)cc(F)c3)NC(=O)Cn3nc(C(F)F)c4c3C(F)(F)CCC4(F)F)c21 [Example 34] | 89% | 90% | > 57.1 µM |
| Cn1nc(NS(C)(=O)=O)c2c(Cl)ccc(-c3ccc(C#CC(C)(C)S(=O)(=O)C4CC4)nc3[C@H](Cc3cc(F)cc(F)c3)NC(=O)Cn3cnnn3)c21 [Example 45] | 96% | 97% | 20.1 µM |
| CCS(=O)(=O)Nc1nn(C)c2c(-c3ccc(C#CC(C)(C)S(=O)(=O)C4CC4)nc3[C@H](Cc3cc(F)cc(F)c3)NC(=O)Cn3nc(C(F)F)c4c3C(F)(F)[C@@H]3C[C@H]43)ccc(Cl)c12 [Example 6] | 100% | 100% | > 57.1 µM |
| Cn1nc(Nc2nnc(C(C)(C)O)o2)c2c(Cl)ccc(-c3ccc(C#CC(C)(C)S(=O)(=O)C4CC4)nc3[C@H](Cc3cc(F)cc(F)c3)NC(=O)Cn3nc(C(F)(F)F)c4c3C(F)(F)[C@@H]3C[C@H]43)c21 [Example 3F, N—((S)-1-(3-(4-chloro-3-((5-(2-hydroxypropan-2-yl)-1,3,4-oxadiazol-2-yl)amino)-1-methyl-1H-indazol-7-yl)-6-(3-(cyclopropylsulfonyl)-3-methylbut-1-yn-1-yl)pyridin-2-yl)-2-(3,5-difluorophenyl)ethyl)-2-((3bS,4aR)-5,5-difluoro-3-(trifluoromethyl)-3b,4,4a,5-tetrahydro-1H-cyclopropa[3,4]cyclopenta[1,2-c]pyrazol-1-yl)acetamide] | 100% | 100% | 21.8 µM |
| CCS(=O)(=O)Nc1nn(CC(F)F)c2c(-c3ccc(C#CC(C)(C)S(=O)(=O)C4CC4)nc3[C@H](Cc3cc(F)cc(F)c3)NC(=O)Cn3nc(C(F)(F)F)c4c3C(F)(F)[C@@H]3C[C@H]43)ccc(Cl)c12 [Example 11] | 92% | 92% | > 57.1 µM |
| CC(C)(C#Cc1ccc(-c2ccc(F)c3c(NS(=O)(=O)C4CC4)nn(CC(F)F)c23)c([C@H](Cc2cc(F)cc(F)c2)NC(=O)Cn2nc(C(F)(F)F)c3c2C(F)(F)[C@@H]2C[C@H]32)n1)S(=O)(=O)C1CC1 [Example 57] | 59% | 91% | > 57.1 µM |
| CC1(S(=O)(=O)Nc2nn(CC(F)(F)F)c3c(-c4ccc(C#CC(C)(C)S(=O)(=O)C5(C)CC5)nc4[C@H](Cc4cc(F)cc(F)c4)NC(=O)Cn4nc(C(F)(F)F)c5c4C(F)(F)[C@@H]4C[C@H]54)ccc(Cl)c23)CC1 [Example 32] | 100% | 100% | > 57.1 µM |
| Cn1nc(NS(=O)(=O)C2CC2)c2c(Cl)ccc(-c3ccc(C#CC(C)(C)S(=O)(=O)C4CC4)nc3[C@H](Cc3cc(F)cc(F)c3)NC(=O)Cn3nc(C(F)(F)F)c4c3C(F)(F)[C@@H]3C[C@H]43)c21 [Example 13] | 100% | 100% | > 57.1 µM |
| Cn1nc(Nc2nnc(C(F)F)o2)c2c(Cl)ccc(-c3ccc(C#CC(C)(C)S(=O)(=O)C4CC4)nc3[C@H](Cc3cc(F)cc(F)c3)NC(=O)Cn3nc(C(F)F)c4c3C(F)(F)[C@@H]3C[C@H]43)c21 [Example 30] | 99% | 99% | > 57.1 µM |
| CC(C)(C#Cc1ccc(-c2ccc(Cl)c3c(NS(=O)(=O)C4CC4)nn(CC(F)(F)F)c23)c([C@H](Cc2cc(F)cc(F)c2)NC(=O)Cn2nc(C(F)(F)F)c3c2C(F)(F)[C@@H]2C[C@H]32)n1)S(=O)(=O)C1CC1 [Example 36] | 93% | 93% | > 57.1 µM |
| CC(C)(C#Cc1ccc(-c2ccc(Cl)c3c(NS(=O)(=O)C4CC4)nn(CC(F)(F)F)c23)c([C@H](Cc2cc(F)cc(F)c2)NC(=O)Cn2nc(C(F)F)c3c2C(F)(F)[C@@H]2C[C@H]32)n1)S(=O)(=O)C1CC1 [Example 35] | 97% | 97% | > 57.1 µM |
| Cn1nc(Nc2nnc(C3(O)CC3)o2)c2c(Cl)ccc(-c3ccc(C#CC(C)(C)S(=O)(=O)C4CC4)nc3[C@H](Cc3cc(F)cc(F)c3)NC(=O)Cn3nc(C(F)F)c4c3C(F)(F)[C@@H]3C[C@H]43)c21 [Example 28] | 99% | 99% | 16.5 µM |
| Cn1nc(NS(C)(=O)=O)c2c(Cl)ccc(-c3ccc(C#CC(C)(C)S(=O)(=O)C4CC4)nc3[C@H](Cc3cc(F)cc(F)c3)NC(=O)Cc3nnn[nH]3)c21 [Example 46] | 0% | 10% | > 54.6 µM |
| Cn1nc(NS(=O)(=O)CC2CC2)c2c(Cl)ccc(-c3ccc(C#CC(C)(C)S(=O)(=O)C4CC4)nc3[C@H](Cc3cc(F)cc(F)c3)NC(=O)Cn3nc(C(F)(F)F)c4c3C(F)(F)[C@@H]3C[C@H]43)c21 [Example 15] | 98% | 98% | > 57.1 µM |
| Cn1nc(NS(C)(=O)=O)c2c(Cl)ccc(-c3ccc(C#CC(C)(C)S(=O)(=O)C4CC4)nc3[C@H](Cc3cc(F)cc(F)c3)NC(=O)Cn3nc(C(F)F)cc3C(F)F)c21 [Example 43] | 87% | 87% | > 57.1 µM |
| CC(C)(C#Cc1ccc(-c2ccc(Cl)c3c(NS(=O)(=O)C4CC4)nn(CC(F)F)c23)c([C@H](Cc2cc(F)cc(F)c2)NC(=O)Cn2nc(C(F)F)c3c2C(F)(F)[C@@H]2C[C@H]32)n1)S(=O)(=O)C1CC1 [Example 16] | 98% | 98% | > 57.1 µM |
| CC1(S(=O)(=O)Nc2nn(CC(F)F)c3c(-c4ccc(C#CC(C)(C)S(=O)(=O)C5CC5)nc4[C@H](Cc4cc(F)cc(F)c4)NC(=O)Cn4nc(C(F)(F)F)c5c4C(F)(F)[C@@H]4C[C@H]54)ccc(Cl)c23)CC1 [Example 22] | 94% | 94% | > 57.1 µM |
| CC(C)(C#Cc1ccc(-c2ccc(Cl)c3c(NS(C)(=O)=O)nn(CC(F)(F)F)c23)c([C@H](Cc2cc(F)cc(F)c2)NC(=O)Cn2nc(C(F)F)c3c2C(F)(F)[C@@H]2C[C@H]32)n1)S(=O)(=O)C1CC1 [Example 17] | 98% | 98% | > 24 µM |
| Cn1nc(NS(C)(=O)=O)c2c(Cl)ccc(-c3ccc(C#CC(C)(C)S(=O)(=O)C4CC4)nc3[C@H](Cc3cc(F)cc(F)c3)NC(=O)Cn3nc(C(F)F)c4c3C(F)(F)CCC4(F)F)c21 [Example 38] | 93% | 93% | > 57.1 µM |
| Cn1nc(NS(=O)(=O)C2(C)CC2)c2c(Cl)ccc(-c3ccc(C#CC(C)(C)S(=O)(=O)C4CC4)nc3[C@H](Cc3cc(F)cc(F)c3)NC(=O)Cn3nc(C(F)(F)F)c4c3C(F)(F)[C@@H]3C[C@H]43)c21 [Example 21] | 100% | 100% | > 57.1 µM |
| CC1(S(=O)(=O)Nc2nn(CC(F)F)c3c(-c4ccc(C#CC(C)(C)S(=O)(=O)C5CC5)nc4[C@H](Cc4cc(F)cc(F)c4)NC(=O)Cn4nc(C(F)F)c5c4C(F)(F)[C@@H]4C[C@H]54)ccc(Cl)c23)CC1 [Example 2F, N—((S)-1-(3-(4-chloro-1-(2,2-difluoroethyl)-3-((1-methylcyclopropane)-1-sulfonamido)-1H-indazol-7-yl)-6-(3-(cyclopropylsulfonyl)-3-methylbut-1-yn-1-yl)pyridin-2-yl)-2-(3,5-difluorophenyl)ethyl)-2-((3bS,4aR)-3-(difluoromethyl)-5,5-difluoro-3b,4,4a,5-tetrahydro-1H-cyclopropa[3,4]cyclopenta[1,2-c]pyrazol-1-yl)acetamide] | 100% | 100% | > 57.1 µM |

Reference: patent US11753399B2, “Therapeutic compounds” (Gilead Sciences, Inc., priority 2018, dated 2023)
